Assay results taken from patent publication US6737383B1, “Herbicidal oxadiazolidines” (priority 1999, dated 2004).

Legend:
[1] = test system: bedstraw; assay: Test B pre/postemergence bedstraw; type: in vivo, Galium aparine; conditions: Preemergence
Method in brief: (§1)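 Test chemicals in a non-phytotoxic solvent mixture with surfactant were sprayed preemergence onto planted seeds and postemergence onto plants 2 to 18 cm tall (1- to 4-leaf stage). After twelve to sixteen days in a greenhouse, injury was visually rated against untreated controls from 0 (no effect) to 10 (complete control).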

[2] = test system: blackgrass; assay: Test B pre/postemergence blackgrass; type: in vivo, Alopecurus myosuroides
Method in brief: as §1

[3] = test system: surinam grass; assay: Test B pre/postemergence surinam grass; type: in vivo, Brachiaria decumbens
Method in brief: as §1

[4] = test system: cocklebur; assay: Test B pre/postemergence cocklebur; type: in vivo, Xanthium strumarium
Method in brief: as §1

[5] = test system: corn; assay: Test B pre/postemergence corn; type: in vivo, Zea mays
Method in brief: as §1

[6] = test system: crabgrass; assay: Test B pre/postemergence crabgrass; type: in vivo, Digitaria sanguinalis
Method in brief: as §1

[7] = test system: giant foxtail; assay: Test B pre/postemergence giant foxtail; type: in vivo, Setaria faberii
Method in brief: as §1

[8] = test system: morningglory; assay: Test B pre/postemergence morningglory; type: in vivo, Ipomoea hederacea
Method in brief: as §1

[9] = test system: rape; assay: Test B pre/postemergence rape; type: in vivo, Brassica napus
Method in brief: as §1

[10] = test system: soybean; assay: Test B pre/postemergence soybean; type: in vivo, Glycine max
Method in brief: as §1

[11] = test system: velvetleaf; assay: Test B pre/postemergence velvetleaf; type: in vivo, Abutilon theophrasti
Method in brief: as §1

[12] = test system: wheat; assay: Test B pre/postemergence wheat; type: in vivo, Triticum aestivum
Method in brief: as §1

[13] = test system: wild oat; assay: Test B pre/postemergence wild oat; type: in vivo, Avena fatua
Method in brief: as §1

[14] = test system: smallflower flatsedge; assay: Test B flood test smallflower flatsedge; type: in vivo, Cyperus difformis
Method in brief: (§2)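 Read-out is a visual response score from 0 (no effect) to 10 (complete control), assigned by comparison with untreated controls. Treatment was applied at the 2-leaf stage, and plants stayed in the greenhouse for twelve to sixteen days before scoring.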

[15] = test system: duck salad; assay: Test B flood test duck salad; type: in vivo, Heteranthera limosa
Method in brief: as §2

[16] = test system: bamyardgrass; assay: Test B flood test barnyardgrass; type: in vivo, Echinochloa crus-galli
Method in brief: as §2

[17] = Postemergence, Rate 125 g/ha, scale 0 to 10, 0 is no effect, 10 is complete control
[18] = Postemergence, Rate 250 g/ha, scale 0 to 10, 0 is no effect, 10 is complete control
[19] = Postemergence, Rate 500 g/ha, scale of 0 to 10 where 0 is no effect and 10 is complete control
[20] = Preemergence, Rate 62 g/ha, scale 0 to 10 (0 no effect, 10 complete control)
[21] = Preemergence, Rate 125 g/ha, scale of 0 to 10 where 0 is no effect and 10 is complete control
[22] = Preemergence, Rate 250 g/ha, scale of 0 to 10 where 0 is no effect and 10 is complete control
[23] = Preemergence, Rate 500 g/ha, scale 0 to 10, 0 is no effect, 10 is complete control
[24] = Rate 62 g/ha, Postemergence, scale of 0 to 10 where 0 is no effect and 10 is complete control
[25] = Preemergence, Rate 250 g/ha, scale 0 to 10, 0 is no effect, 10 is complete control
[26] = Rate 62 g/ha, flood test species, Pre-emergence, visual evaluation after twelve to sixteen days
[27] = Rate 125 g/ha, under heading Pre-emergence, flood test species, visual evaluation after twelve to sixteen days
[28] = Rate 250 g/ha, Pre-emergence, flood-test species, scale 0 to 10, 0 is no effect, 10 is complete control
[29] = Rate 500 g/ha, Pre-emergence, flood test species, scale 0 to 10 (0 no effect, 10 complete control)

Cc1nc(Cl)sc1C(C)n1c(=O)on(C(=O)N(c2ccccc2)C(C)C)c1=O (stereo not shown) [Compound 407]
7: Blackgrass plant response rating [2, 19]
10: Giant foxtail plant response rating [7, 23] | Plant response rating, Morningglory [8, 18] | Morningglory plant response rating [8, 19]
2: Plant response rating, Crabgrass [6, 21] | Plant response rating, Soybean [10, 18] | Soybean plant response rating [10, 19] | Velvetleaf plant response rating [11, 19]
0: Plant response rating, Bedstraw ([1]; Rate 62 g/ha, scale 0 to 10 (0 no effect, 10 complete control)) | Plant response rating, Bedstraw ([1]; Rate 125 g/ha, scale of 0 to 10 where 0 is no effect and 10 is complete control) | Bedstraw plant response rating ([1]; Rate 250 g/ha, scale of 0 to 10 where 0 is no effect and 10 is complete control) | Bedstraw plant response rating ([1]; Rate 500 g/ha, scale 0 to 10, 0 is no effect, 10 is complete control) | Plant response rating, Blackgrass [2, 17] | Plant response rating, Blackgrass [2, 18] | Plant response rating, Blackgrass [2, 20] | Plant response rating, Blackgrass [2, 21] | Blackgrass plant response rating [2, 22] | Blackgrass plant response rating [2, 23] | Blackgrass plant response rating [2, 24] | Plant response rating, B. signalgrass [3, 17] | Plant response rating, B. signalgrass [3, 18] | B. signalgrass plant response rating [3, 19] | Plant response rating, B. signalgrass [3, 20] | Plant response rating, B. signalgrass [3, 21] | B. signalgrass plant response rating [3, 22] | B. signalgrass plant response rating ([3]; Preemergence, Rate 500 g/ha, scale of 0 to 10 where 0 is no effect and 10 is complete control) | B. signalgrass plant response rating [3, 24] | Plant response rating, Cocklebur [4, 17] | Plant response rating, Cocklebur [4, 18] | Cocklebur plant response rating [4, 19] | Plant response rating, Cocklebur [4, 20] | Plant response rating, Cocklebur [4, 21] | Cocklebur plant response rating [4, 25] | Cocklebur plant response rating [4, 23] | Cocklebur plant response rating [4, 24] | Plant response rating, Corn [5, 17] | Plant response rating, Corn [5, 18] | Corn plant response rating [5, 19] | Plant response rating, Corn [5, 20] | Plant response rating, Corn [5, 21] | Corn plant response rating [5, 25] | Corn plant response rating [5, 23] | Corn plant response rating [5, 24] | Plant response rating, Crabgrass [6, 17] | Plant response rating, Crabgrass [6, 20] | Crabgrass plant response rating [6, 24] | Plant response rating, Giant foxtail [7, 17] | Plant response rating, Giant foxtail [7, 20] | Giant foxtail plant response rating [7, 24] | Plant response rating, Morningglory [8, 20] | Plant response rating, Morningglory [8, 21] | Morningglory plant response rating [8, 25] | Morningglory plant response rating [8, 23] | Plant response rating, Rape [9, 18] | Plant response rating, Rape [9, 20] | Plant response rating, Rape [9, 21] | Rape plant response rating [9, 25] | Rape plant response rating [9, 23] | Plant response rating, Soybean [10, 20] | Plant response rating, Soybean [10, 21] | Soybean plant response rating [10, 25] | Soybean plant response rating [10, 23] | Plant response rating, Velvetleaf [11, 18] | Plant response rating, Velvetleaf [11, 20] | Plant response rating, Velvetleaf [11, 21] | Velvetleaf plant response rating [11, 25] | Velvetleaf plant response rating [11, 23] | Wheat plant response rating [12, 19] | Plant response rating, Wheat [12, 20] | Plant response rating, Wheat [12, 21] | Wheat plant response rating [12, 25] | Wheat plant response rating [12, 23] | Wild oats plant response rating [13, 19] | Plant response rating, Wild oats [13, 20] | Plant response rating, Wild oats [13, 21] | Wild oats plant response rating [13, 25] | Wild oats plant response rating [13, 23] | Plant response rating, S. Flatsedge (0 to 10 scale, 0 is no effect, 10 is complete control) [14, 26] | S. Flatsedge plant response rating (0 to 10 scale, 0 is no effect, 10 is complete control) [14, 27] | S. Flatsedge plant response rating [14, 28] | S. Flatsedge plant response rating [14, 29] | Plant response rating, Ducksalad (0 to 10 scale, 0 is no effect, 10 is complete control) [15, 26] | Ducksalad plant response rating (0 to 10 scale, 0 is no effect, 10 is complete control) [15, 27] | Ducksalad plant response rating [15, 28] | Ducksalad plant response rating [15, 29] | Plant response rating, Barnyardgrass (0 to 10 scale, 0 is no effect, 10 is complete control) [16, 26] | Barnyardgrass plant response rating (0 to 10 scale, 0 is no effect, 10 is complete control) [16, 27] | Barnyardgrass plant response rating [16, 28] | Barnyardgrass plant response rating [16, 29]
5: Crabgrass plant response rating [6, 25]
6: Plant response rating, Giant foxtail [7, 21]
1: Plant response rating, Crabgrass [6, 18]
3: Crabgrass plant response rating [6, 19] | Plant response rating, Giant foxtail [7, 18]
9: Crabgrass plant response rating [6, 23] | Giant foxtail plant response rating [7, 25]
8: Giant foxtail plant response rating [7, 19]
